Measured values reported in US9770446B2, “Piperidine urea derivatives” (MERCK PATENT GMBH, priority 2013, dated 2017).

Assays:
[1] = molecular target: T1, GST-tagged Tnks-1 (1023-1327 aa) (Homo sapiens, UniProt O95271); assay: TNKS1 activity ELISA (autoparsylation assay); type: biochemical
T1 construct: GST-tagged Tnks-1 (1023-1327 aa, prepared in-house); made in house
Protocol: (§1) Description of the TNKS1 and TNKS2 ELISA Assay
(§2) Biochemical Activity Testing of TNKS 1 and 2: Activity ELISA (Autoparsylation Assay)
(§3) For analysis of autoparsylation activity of TNKS 1 and 2 an activity ELISA iss performed: In the first step GST tagged TNKS is captured on a Glutathione coated plate. Then the activity assay with biotinylated NAD is performed in the absence/presence of the compounds. During the enzymatic reaction GST tagged TNKS transfers biotinylated ADP-ribose to itself from biotinylated NAD as co-substrate. For the detection streptavidin-HRP conjugate is added that binds to the biotinylated TNKS and is thereby captured to the plates. The amount of biotinylated resp. autoparsylated TNKS is detected with a luminescence substrate for HRP. The level of the luminescence signal correlates directly with the amount of autoparsylated TNKS and therefore with activity of TNKS.
(§4) The activity ELISA is performed in 384 well Glutathione coated microtiter plates (Express capture Glutathione coated plate, Biocat, Heidelberg, Germany). The plates are pre-equilibrated with PBS. Then the plates are incubated with 50 μl 20 ng/well GST-tagged Tnks-1 (1023-1327 aa, prepared in-house), respectively GST-tagged Tnks-2 (873-1166 aa, prepared in-house) in assay buffer (50 mM HEPES, 4 mM Mg-chloride, 0.05% Pluronic F-68, 2 mM DTT, pH 7.7) overnight at 4° C. The plates are washed 3 times with PBS-Tween-20. The wells are blocked by incubation at room temperature for 20 minutes with 50 μl blocking buffer (PBS, 0.05% Tween-20, 0.5% BSA). Afterwards the plates are washed 3 times with PBS-Tween-20. The enzymatic reaction is performed in 50 μl reaction solution (50 mM HEPES, 4 mM Mg-chloride, 0.05% Pluronic F-68, 1.4 mM DTT, 0.5% DMSO, pH 7.7) with 10 μM bio-NAD (Biolog, Life science Inst., Bremen, Germany) as co-substrate in the absence or presence of the test compound (10 dilution concentrations) for 1 hour at 30° C. The reaction is stopped by 3 times washing with PBS-Tween20. For the detection 50 μl of 20 ng/μl Streptavidin, HRP conjugate (MoBiTec, Göttingen, Germany) in PBS/0.05% Tween-20/0.01% BSA are added and the plates are incubated for 30 minutes at room temperature. After three times washing with PBS-Tween-20 50 μl of SuperSignal ELISA Femto Maximum sensitivity substrate solution (ThermoFisherScientific (Pierce), Bonn, Germany) are added. Following a 1 minute incubation at room temperature luminescence signals are measured with an Envision multimode reader (Perkin Elmer LAS Germany GmbH) at 700 nm. The full value used is the inhibitor-free reaction. The pharmacological zero value used is XAV-939 (Tocris) in a final concentration of 5 μM. The inhibitory values (IC50) are determined using either the program Symyx Assay Explorer® or Condosseo® from GeneData.

[2] = molecular target: T2, GST-tagged Tankyrase-1 (1023-1327 aa) (Homo sapiens, UniProt O95271); assay: Tankyrase 1 autoparsylation HTRF enzyme assay; type: biochemical; settings: read-out: IC50 TNKS1 enzyme assay
T2 construct: GST-tagged Tankyrase-1 (1023-1327 aa)
Protocol: (§5) Biochemical activity testing of Tankyrase 1 and 2: Autoparsylation assay
(§6) The autoparsylation assay is run in two steps: the enzymatic reaction in which GST-tagged Tankyrase-1, resp Tankyrase-2 transferred biotinylated ADP-ribose to itself from biotinylated NAD as co-substrate and the detection reaction where a time resolved FRET between cryptate labelled anti-GST bound to the GST tag of the enzyme and Xlent® labelled-streptavidin bound the biotin-parsylation residue is analysed. The autoparsylation activity was detectable directly via the increase in HTRF signal.
(§7) The autoparsylation assay is performed as 384-well HTRF® (Cisbio, Codolet, France) assay format in Greiner low volume nb 384-well microtiter plates and is used for high throughput screen. 250 nM GST-tagged Tankyrase-1 (1023-1327 aa), respectively about 250 nM GST-tagged Tankyrase-2 (873-1166 aa) and 5 μM bio-NAD (Biolog, Life science Inst., Bremen, Germany) as co-substrate are incubated in a total volume of 5 μl (50 mM HEPES, 4 mM Mg-chloride, 0.05% Pluronic F-68, 1.4 mM DTT, 0.5% DMSO, pH 7.7) in the absence or presence of the test compound (10 dilution concentrations) for 90 min at 30° C. The reaction is stopped by the addition of 1 μl 50 mM EDTA solution. 2 μl of the detection solution (1.6 μM SA-Xlent® (Cisbio, Codolet, France), 7.4 nM Anti-GST-K® (Eu-labelled anti-GST, Cisbio, Codolet, France) in 50 mM HEPES, 800 mM KF, 0.1% BSA, 20 mM EDTA, 0.1% CHAPS, pH 7.0) are added. After 1 h incubation at room temperature the HTRF is measured with an Envision multimode reader (Perkin Elmer LAS Germany GmbH) at excitation wavelength 340 nm (laser mode) and emission wavelengths 615 nm and 665 nm. The ratio of the emission signals is determined. The full value used is the inhibitor-free reaction. The pharmacological zero value used is XAV-939 (Tocris) in a final concentration of 5 μM. The inhibitory values (IC50) are determined using either the program Symyx Assay Explorer® or Condosseo® from GeneData.

Tankyrase = assay: Cellular inhibition of Tankyrase: Axin2 level in DLD1 cells (Luminex); type: cell-based; settings: 24 hours, Axin2 increase, read-out: EC50 [M] TNKS cellular assay
Protocol: Measurement of Cellular Inhibition of Tankyrase
Since Tankyrases have been described to modulate cellular level of Axin2 (Huang et al., 2009; Nature) the increase of Axin2 level is used as read-out for determination of cellular inhibition of Tankyrases in a Luminex based assay.
Cells of the colon carcinoma cell line DLD1 are plated in 96 well plates with 1.5×10^4 cells per well. Next day, cells are treated with a serial dilution of test compound in seven steps as triplicates with a final DMSO concentration of 0.3%. After 24 hours, cells are lysed in lysis buffer (20 mM Tris/HCl pH 8.0, 150 mM NaCl, 1% NP40, 10% Glycerol) and lysates are cleared by centrifugation through a 96 well filter plate (0.65 μm). Axin2 protein is isolated from cell lysates by incubation with a monoclonal anti-Axin2 antibody (R&D Systems #MAB6078) that is bound to fluorescent carboxybeads. Then, bound Axin2 is specifically detected with a polyclonal anti-Axin2 antibody (Cell Signaling #2151) and an appropriate PE-fluorescent secondary antibody. The amount of isolated Axin2 protein is determined in a Luminex^200 machine (Luminex Corporation) according to the manufacturer's instruction by counting 100 events per well. Inhibition of Tankyrase by test compounds results in higher levels of Axin2 which directly correlates with an increase of detectable fluorescence. As controls cells are treated with solvent alone (neutral control) and with a Tankyrase reference inhibitor IWR-2 (3E-06 M) which refers as control for maximum increase of Axin2. For analysis, the obtained data are normalized against the untreated solvent control and fitted for determination of the EC50 values using the Assay Explorer software (Accelrys).

[3] = molecular target: T3, GST-tagged Tankyrase-2 (873-1166 aa) (Homo sapiens, UniProt Q9H2K2); assay: Tankyrase 2 autoparsylation HTRF enzyme assay; type: biochemical; settings: read-out: IC50 TNKS2 enzyme assay
T3 construct: GST-tagged Tankyrase-2 (873-1166 aa)
Protocol: as §5, §6, §7

[4] = molecular target: T4, GST-tagged Tnks-2 (873-1166 aa) (Homo sapiens, UniProt Q9H2K2); assay: TNKS2 activity ELISA (autoparsylation assay); type: biochemical
T4 construct: GST-tagged Tnks-2 (873-1166 aa, prepared in-house); made in house
Protocol: as §1, §2, §3, §4

T4 sequence (Q9H2K2 873-1166): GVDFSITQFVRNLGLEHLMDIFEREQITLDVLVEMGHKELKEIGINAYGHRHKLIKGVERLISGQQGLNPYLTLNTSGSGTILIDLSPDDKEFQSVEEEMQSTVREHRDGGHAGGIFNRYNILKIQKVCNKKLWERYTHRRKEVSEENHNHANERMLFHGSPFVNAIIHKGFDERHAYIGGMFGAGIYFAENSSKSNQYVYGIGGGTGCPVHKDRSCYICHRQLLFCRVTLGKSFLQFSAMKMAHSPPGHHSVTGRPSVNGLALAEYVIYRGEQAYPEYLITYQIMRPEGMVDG
T3 sequence (Q9H2K2 873-1166): as above
T1 sequence (O95271 1023-1327): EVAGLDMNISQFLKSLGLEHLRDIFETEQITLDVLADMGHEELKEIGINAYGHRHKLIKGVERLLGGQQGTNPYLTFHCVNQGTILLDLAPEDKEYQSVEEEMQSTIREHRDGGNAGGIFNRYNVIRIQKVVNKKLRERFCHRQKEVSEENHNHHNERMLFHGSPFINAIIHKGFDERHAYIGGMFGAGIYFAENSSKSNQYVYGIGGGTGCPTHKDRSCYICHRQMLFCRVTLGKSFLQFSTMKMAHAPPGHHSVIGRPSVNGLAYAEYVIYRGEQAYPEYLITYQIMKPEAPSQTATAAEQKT
T2 sequence (O95271 1023-1327): as above

SMILES	IC50 [1] [nM]	IC50 [2] [nM]	EC50 (Tankyrase) [M]	IC50 [3] [nM]	IC50 [4] [nM]
COc1cccc(N(C)C(=O)N2CCC(C(=O)c3ccccc3)CC2)c1 [Compound A3, 4-benzoyl-piperidine-1-carboxylic acid (3-methoxy-phenyl)-methyl-amide]	< 300	300 to 3000	3e-07 to 3e-06	300 to 3000	< 300
COc1ccc(N(C)C(=O)N2CCC(C(=O)c3ccc(Cl)cc3)CC2)cc1 [Compound A9, 4-(4-chloro-benzoyl)-piperidine-1-carboxylic acid (4-methoxy-phenyl)-methylamide]	< 300	< 300	3e-07 to 3e-06	300 to 3000	< 300
CN(C(=O)N1CCC(C(=O)c2ccccc2)CC1)c1cccc(C#N)c1 [Compound A10, 4-benzoyl-piperidine-1-carboxylic acid (3-cyano-phenyl)-methyl-amide]	300 to 3000	300 to 3000	3e-06 to 5e-05	3000 to 50000	< 300
CN(C(=O)N1CCC(C(=O)c2ccccc2)CC1)c1ccc(C#N)cc1 [Compound A11, 4-benzoyl-piperidine-1-carboxylic acid (4-cyano-phenyl)-methyl-amide]	< 300	300 to 3000	3e-07 to 3e-06	300 to 3000	< 300
CN(C(=O)N1CCC(C(=O)c2ccccc2)CC1)c1cccc(F)c1 [Compound A12, 4-benzoyl-piperidine-1-carboxylic acid (3-fluoro-phenyl)-methyl-amide]	< 300	300 to 3000	3e-07 to 3e-06	300 to 3000	< 300
O=C(c1cccc(F)c1)C1CCN(C(=O)N2CCc3ccccc32)CC1 [Compound A19, (2,3-dihydro-indol-1-yl)-[4-(3-fluoro-benzoyl)-piperidin-1-yl]-methanone]	< 300	300 to 3000	3e-06 to 5e-05	300 to 3000	< 300
O=C(c1ccc(F)cc1)C1CCN(C(=O)N2CCc3ccccc32)CC1 [Compound A20, (2,3-dihydro-indol-1-yl)-[4-(4-fluoro-benzoyl)-piperidin-1-yl]-methanone]	< 300	300 to 3000	3e-06 to 5e-05	300 to 3000	< 300
O=C(c1ccc(Cl)cc1)C1CCN(C(=O)N2CCc3ccccc32)CC1 [Compound A21, [4-(4-chloro-benzoyl)-piperidin-1-yl]-(2,3-dihydro-indol-1-yl)-methanone]	300 to 3000	300 to 3000	3e-06 to 5e-05	300 to 3000	< 300
CN(C(=O)N1CCC(C(=O)c2ccc(-c3cnn(CCN4CCCC4)c3)cc2)CC1)c1ccc(-c2cnn(CCN3CCCC3)c2)cc1 [Compound A37, 4-{4-[1-(2-pyrrolidin-1-yl-ethyl)-1H-pyrazol-4-yl]-benzoyl}-piperidine-1-carboxylic acid methyl-{4-[1-(2-pyrrolidin-1-yl-ethyl)-1H-pyrazol-4-yl]-phenyl}-amide]	< 300		3e-07 to 3e-06		< 300
CCN(C(=O)N1CCC(C(=O)c2ccc(OC)nc2)CC1)c1ccc(OC)cc1 [Compound A43, N-ethyl-N-(4-methoxyphenyl)-4-(6-methoxypyridine-3-carbonyl)piperidine-1-carboxamide]	< 300		< 3e-07		< 300
COc1ccc(N(C)C(=O)N2CCC(C(=O)c3ccccc3)CC2)cn1 [Compound A44, 4-benzoyl-N-(6-methoxy-3-pyridyl)-N-methyl-piperidine-1-carboxamide]	< 300		3e-07 to 3e-06		< 300
CCn1cc(-c2ccc(C(=O)C3CCN(C(=O)N(C)c4ccc(OC)nc4)CC3)cc2)cn1 [Compound A48, 4-[4-(1-ethylpyrazol-4-yl)benzoyl]-N-(6-methoxy-3-pyridyl)-N-methyl-piperidine-1-carboxamide]	< 300		3e-07 to 3e-06		< 300
COc1ccc(N(C)C(=O)N2CCC(C(=O)c3ccc(OC)c(C)c3)CC2)cn1 [Compound A52, 4-(4-methoxy-3-methyl-benzoyl)-N-(6-methoxy-3-pyridyl)-N-methyl-piperidine-1-carboxamide]	< 300		< 3e-07		< 300
COc1ccc(N(C)C(=O)N2CCC(C(=O)c3ccc(OC)nc3)CC2)cc1 [Compound A53, N-(4-methoxyphenyl)-4-(6-methoxypyridine-3-carbonyl)-N-methyl-piperidine-1-carboxamide]	< 300		3e-07 to 3e-06		< 300
CCn1cc(-c2ccc(C(=O)C3CCN(C(=O)N(C)c4ccc(-c5cnn(CC)c5)cc4)CC3)cc2)cn1 [Compound A57, 4-[4-(1-Ethyl-1H-pyrazol-4-yl)-benzoyl]-piperidine-1-carboxylic acid [4-(1-ethyl-1H-pyrazol-4-yl)-phenyl]-methyl-amide]	< 300		< 3e-07		< 300
